Data as given in ChEMBL document CHEMBL5241075, “Advancement of chimeric hybrid drugs to cure malaria infection: An overview with special emphasis on endoperoxide pharmacophores” (Eur J Med Chem, 2021).

Assays:
Plasmodium falciparum [1] = assay: Antiplasmodial activity against Plasmodium falciparum D6; assay type: functional, organism-based
Plasmodium falciparum [2] = assay: Antiplasmodial activity against Plasmodium falciparum TM91C235; assay type: functional, organism-based
Plasmodium falciparum [3] = assay: Antiplasmodial activity against Plasmodium falciparum W2; assay type: functional, organism-based
Plasmodium berghei = assay: Antimalarial activity against liver stage Plasmodium berghei; assay type: functional, organism-based
Caco-2 = assay: Cytotoxicity against human Caco-2 cells assessed as reduction in cell viability; assay type: functional
Plasmodium falciparum [4] = assay: Antiplasmodial activity against Plasmodium falciparum Nigerian; assay type: functional, organism-based
Plasmodium falciparum [5] = assay: Antimalarial activity against chloroquine resistant Plasmodium falciparum FcB1; assay type: functional, organism-based
Plasmodium falciparum [6] = assay: Antiplasmodial activity against Plasmodium falciparum FcM29; assay type: functional, organism-based
Plasmodium falciparum [7] = assay: Antiplasmodial activity against Plasmodium falciparum K1; assay type: functional, organism-based; conditions: Plasmodium falciparum, K1
Plasmodium falciparum [8] = assay: Antiplasmodial activity against Plasmodium falciparum D10; assay type: functional, organism-based; conditions: Plasmodium falciparum, D10
Plasmodium falciparum [9] = assay: Antiplasmodial activity against Plasmodium falciparum NF54; assay type: functional, organism-based
Plasmodium falciparum [10] = assay: Antiplasmodial activity against Plasmodium falciparum 3D7; assay type: functional, organism-based
Plasmodium falciparum [11] = assay: Resistance index, ratio of IC50 for antiplasmodial activity against Plasmodium falciparum K1 to IC50 for antiplasmodial activity against Plasmodium falciparum D10; assay type: functional
[12] = Therapeutic index, ratio of IC50 for antiproliferative activity against human HeLa cells to IC50 for antiplasmodial activity against Plasmodium falciparum K1; assay type: toxicity, cell-based; conditions: HeLa cells, read-out: Ratio IC50
Hemozoin = assay: Inhibition of Beta-hematin in Plasmodium falciparum
HeLa = assay: Antiproliferative activity against human HeLa cells assessed as cell growth inhibition; assay type: functional, cell-based; conditions: Homo sapiens, HeLa
Plasmodium falciparum [13] = assay: Antiplasmodial activity against Plasmodium falciparum DD2; assay type: functional, organism-based
Plasmodium falciparum [14] = assay: Antiplasmodial activity against chloroquine resistant Plasmodium falciparum; assay type: functional, organism-based
[15] = Stability of compound at pH 2 assessed as half life; assay type: physicochemical; conditions: buffer

Compound `C[C@@H]1C[C@@H]2CC3(CC[C@@H]2C2CC[C@@]4(C)C(CC[C@@H]4[C@H](C)CCCNCCNc4ccnc5cc(Cl)ccc45)C21)OOC1(CCCCC1)OO3` (some centres undefined) has an IC50 (Plasmodium falciparum [1]) of 0.0335 µM, an IC90 (Plasmodium falciparum [1]) of 0.103 µM and an IC50 (Plasmodium falciparum [2]) of 0.0302 µM. For the same compound, the IC90 (Plasmodium falciparum [2]) was 0.16 µM, the IC50 (Plasmodium falciparum [3]) was 0.0229 µM and the IC90 (Plasmodium falciparum [3]) was 0.0303 µM.

Compound `COc1cc(NC(C)CCCNC(=O)C2CCC3(CC2)OOC2(OO3)C3CC4CC(C3)CC2C4)c2nccc(C(F)(F)F)c2c1` (centres undefined) has an EC50 (Plasmodium berghei) of 4.12 µM, a CC50 (Caco-2) greater than 50000 µM and an EC50 (Plasmodium falciparum [3]) of 0.06 µM.

Compound `Clc1cc(NCCNC2CCC3(CC2)OOC2CCC=CC2O3)c2ncccc2c1` (centres undefined) has an IC50 (Plasmodium falciparum [4]) of 0.036 µM, an IC50 (Plasmodium falciparum [5]) of 0.036 µM and an IC50 (Plasmodium falciparum [6]) of 0.036 µM.

Compound `C[C@H]1[C@@H](O)O[C@@H]2C[C@]3(C)CC[C@H]4[C@H](C)CC[C@@H]1[C@@]24OO3` has an IC50 (Plasmodium falciparum [7]) of 0.003 µM, an IC50 (Plasmodium falciparum [8]) of 0.004 µM and an IC50 (Plasmodium falciparum [9]) of less than 0.007 µM. For the same compound, the EC50 (Plasmodium falciparum [10]; read-out: EC50) was 0.0024 µM and the “Ratio IC50” value (Plasmodium falciparum [11]) was 0.75.

With `C1CCCC2(CC1)OOC1(CCN(c3nc(N4CCOCC4)nc(N4CCOCC4)n3)CC1)OO2` the IC50 (Plasmodium falciparum [10]) was 0.00571 µM.

In the case of `C[C@@H]1CC[C@H]2[C@@H](C)C(OCc3ccc(C(=O)N(CCNc4ccnc5cc(Cl)ccc45)CC(=O)NC(C)(C)C)cc3)O[C@@H]3O[C@]4(C)CC[C@@H]1[C@]32OO4` (some centres undefined), the IC50 (Plasmodium falciparum [7]) is reported as 0.019 µM, the selectivity ratio [12] is reported as 26 and the IC50 (Hemozoin) is reported as 0.44 equiv. The IC50 (Plasmodium falciparum [8]) was 0.027 µM, the “Ratio IC50” value (Plasmodium falciparum [11]) was 0.6 and the IC50 (HeLa) was 0.496 µM.

In the case of `C[C@@H]1CC[C@H]2[C@@H](C)C(c3ccco3)O[C@@H]3O[C@]4(C)CC[C@@H]1[C@]32OO4` (some centres undefined), the IC50 (Plasmodium falciparum [9]) is reported as 0.0014 µM.

With `COc1ccc2nc3cc(Cl)ccc3c(NCCN3CCN(CCO[C@H]4O[C@@H]5O[C@]6(C)CC[C@H]7[C@H](C)CC[C@@H]([C@H]4C)[C@@]57OO6)CC3)c2c1` the IC50 (Plasmodium falciparum [9]) was 0.0141 µM and the IC50 (Plasmodium falciparum [13]) was 0.0504 µM.

For `CCOP(=O)(CCCN(O)C(=O)CC[C@H]1O[C@@H]2O[C@]3(C)CC[C@H]4[C@H](C)CC[C@@H]([C@H]1C)C24OO3)OCC`, the IC50 (Plasmodium falciparum [5]) was 28 µM.

With `COc1ccc2nc3cc(Cl)ccc3c(NCCNCCO[C@H]3O[C@@H]4O[C@]5(C)CC[C@H]6[C@H](C)CC[C@@H]([C@H]3C)[C@@]46OO5)c2c1` the IC50 (Plasmodium falciparum [9]) was 0.0026 µM and the IC50 (Plasmodium falciparum [13]) was 0.0353 µM.

`CCOP(=O)(CCCN(O)C(=O)CCC(=O)N(CCCCNC(=O)CC[C@H]1O[C@@H]2O[C@]3(C)CC[C@H]4[C@H](C)CC[C@@H]([C@H]1C)C24OO3)CCCNC(=O)CC[C@@H]1O[C@H]2O[C@@]3(C)CC[C@@H]4[C@@H](C)CC[C@H]([C@@H]1C)C24OO3)OCC` gave an IC50 (Plasmodium falciparum [5]) of 0.65 µM.

Compound `COC1(C(F)(F)F)O[C@@H]2O[C@]3(C)CC[C@H]4[C@H](C)CC[C@@H]([C@H]1C)[C@@]24OO3` (some centres undefined) has an IC50 (Plasmodium falciparum [14]) of 0.0008 µM and a half-life [15] of 27.5 days.

With `Clc1cc(NCCCN[C@@H]2C[C@@H]3CCC4(OO[C@@]5(c6ccccc6)CC(c6ccccc6)=C[C@H]5O4)[C@@H]3C2)c2ncccc2c1` (some centres undefined) the IC50 (Plasmodium falciparum [4]) was 0.031 µM, the IC50 (Plasmodium falciparum [5]) was 0.031 µM and the IC50 (Plasmodium falciparum [6]) was 0.031 µM.

In the case of `C1CN(c2nc(N3CCOCC3)nc(N3CCC4(CC3)OOC3(OO4)C4CC5CC(C4)CC3C5)n2)CCO1`, the IC50 (Plasmodium falciparum [10]) is reported as 0.00412 µM.

In the case of `C[C@@H]1CC[C@H]2[C@@H](C)C(OC(=O)CCC(=O)O)(C(F)(F)F)O[C@@H]3O[C@]4(C)CC[C@@H]1[C@]32OO4` (some centres undefined), the IC50 (Plasmodium falciparum [14]) is reported as 0.0041 µM and the half-life [15] is reported as 1.25 days.

`C1CCC2(CC1)OOC1(CCN(c3nc(N4CCOCC4)nc(N4CCOCC4)n3)CC1)OO2` showed an IC50 (Plasmodium falciparum [10]) of 0.00568 µM.

In the case of `Clc1cc(NCCCNC2CCC3(CC2)OO[C@@]2(c4ccccc4)CC(c4ccccc4)=C[C@H]2O3)c2ncccc2c1` (mixture of isomers), the IC50 (Plasmodium falciparum [4]) is reported as 0.041 µM, the IC50 (Plasmodium falciparum [5]) is reported as 0.041 µM and the IC50 (Plasmodium falciparum [6]) is reported as 0.041 µM.

Compound `COc1ccc2nc3cc(Cl)ccc3c(N3CCN(CCO[C@H]4O[C@@H]5O[C@]6(C)CC[C@H]7[C@H](C)CC[C@@H]([C@H]4C)[C@@]57OO6)CC3)c2c1` has an IC50 (Plasmodium falciparum [9]) of 0.267 µM and an IC50 (Plasmodium falciparum [13]) of 0.43 µM.

In the case of `Clc1cc(NCCCN[C@H]2C[C@H]3CCC4(OO[C@@]5(c6ccccc6)CC(c6ccccc6)=C[C@H]5O4)[C@H]3C2)c2ncccc2c1` (some centres undefined), the IC50 (Plasmodium falciparum [4]) is reported as 0.063 µM, the IC50 (Plasmodium falciparum [5]) is reported as 0.063 µM and the IC50 (Plasmodium falciparum [6]) is reported as 0.063 µM.

In the case of `CC(C)CN(NC(=O)C1CCC2(CC1)OOC1(OO2)C2CC3CC(C2)CC1C3)c1ccnc(C#N)n1` (centres undefined), the IC50 (Plasmodium falciparum [3]) is reported as 0.0098 µM.

For `COc1ccc2nc3cc(Cl)ccc3c(NCCCN(C)CCO[C@H]3O[C@@H]4O[C@]5(C)CC[C@H]6[C@H](C)CC[C@@H]([C@H]3C)[C@@]46OO5)c2c1`, the IC50 (Plasmodium falciparum [9]) was 0.0122 µM and the IC50 (Plasmodium falciparum [13]) was 0.0385 µM.

Work on `CC(CCC1OOC(C)(C)C(C)(CI)O1)NCCNc1ccnc2cc(Cl)ccc12` (centres undefined) yielded an IC50 (Plasmodium falciparum [4]) of 0.188 µM, an IC50 (Plasmodium falciparum [5]) of 0.188 µM and an IC50 (Plasmodium falciparum [6]) of 0.188 µM.
